Literature values in patent US7985768B2, “Compounds as cannabinoid receptor ligands” (priority 2006, dated 2011).

What was measured:
animal models of pain = details: models of acute thermal, persistent, inflammatory and neuropathic pain
[1] = at fully efficacious doses
rodent models of pain = details: neuropathic, incisional, chronic and acute inflammatory pain
rat = rat formalin model of persistent pain
microglial activation = details: in vitro
[2] = system: CB1 receptor knockout mice
[3] = system: CB2 receptor knockout mice
[4] = system: apolipoprotein E knockout mice
mice = details: model for post-menopausal osteoporosis

CN1CCCCC1Cn1cc(C(=O)c2cc([N+](=O)[O-])ccc2I)c2ccccc21 (stereo not shown) [AM-1241]
analgesic efficacy (animal models of pain): robust analgesic efficacy
CB1 receptor-mediated CNS side effects [1]: devoid of typical CB1 receptor-mediated CNS side effects

COc1ccc2c(c1)c(CCN1CCOCC1)c(C)n2C(=O)c1cccc(Cl)c1Cl [GW405833]
efficacy in pain models (rodent models of pain): efficacious
CB1 receptor-mediated CNS side effects [1]: devoid of typical CB1 receptor-mediated CNS side effects

CCCCCCC(C)(C)c1cc(OC)c([C@@H]2C=C(CO)[C@@H]3C[C@H]2C3(C)C)c(OC)c1 [HU-308]
antinociceptive response (rat): elicits an antinociceptive response

CCCC(C)(C)c1ccc2c(c1)OC(C)(C)[C@@H]1CC=C(C)C[C@@H]21 [JWH-133]
effect on β-amyloid-induced microglial activation and neurotoxicity (microglial activation): abrogated

(−)-Δ^9-Tetrahydrocannabinol [Δ^9-THC]
analgesic efficacy [2]: retains some analgesic efficacy
immunosuppressive effects [3]: absent
effect on progression of atherosclerotic lesions ([4]; low doses): slowed the progression of atherosclerotic lesions

SR144528
effect on the actions of JWH-133 (microglial activation; antagonist against JWH-133): blocked
effect on osteoclast activity (osteoclast): inhibit osteoclast activity
effect on ovariectomy-induced bone loss (mice): reverse ovariectomy-induced bone loss
effect on the actions of THC on atherosclerotic lesions ([4]; antagonist against THC): inhibited
